Data published in US10556943B2, “HLA-DR binding peptides and their uses” (priority 2007, dated 2020).
Ends that are not written are not given here.

Legend:
purified HLA DRB5*0101 = target: T1, purified HLA DRB5*0101 (Homo sapiens, UniProt P01903+Q30154); assay: HLA-DR radioligand binding inhibition assay, DRB5*0101
T1 construct: MHC molecules utilized were purified from EBV transformed homozygous cell lines or single MHC allele transfected 721.221, C1R, or fibroblast lines; made in house; host or cells: EBV transformed homozygous cell lines or single MHC allele transfected 721.221, C1R, or fibroblast lines
Experimental: (§1) Fifteen distinct HLA-DR molecules were used in quantitative assays to measure the binding of peptides to solubilized HLA-DR molecules. […] Briefly, columns of inactivated Sepharose CL4B and Protein A Sepharose were used as pre-columns. HLA-DR molecules were captured by passage of lysates over LB3.1 monoclonal antibody (anti-HLA-DRA) columns. Antibody columns were washed with 10 mM Tris-HCL, pH8.0 with 1% (v/v) NP-40, followed by PBS containing 0.4% (w/v) n-octylglucoside. […] The pH was reduced to 8.0 and the eluates were concentrated by centrifugation in Centriprep 30 concentrators at 2000 rpm (Amicon, Beverly, Mass.).
(§2) Briefly, 1-10 nM of radiolabeled peptide was co-incubated for 2 days at either room temperature or 37° C. with 1 μM to 1 nM purified HLA-DR molecules in the presence of a cocktail of protease inhibitors. Assays were performed at various pH conditions, ranging from pH 4 to pH 7. […] After incubation, the percentage of HLA-DR-bound radioactivity is determined by capturing HLA-DR/peptide complexes on Optiplates (Packard Instruments, Meriden, Conn.) coated with the LB3.1 antibody and determining bound counts per minute using the TopCount microscintillation counter (Packard Instruments). […] Competitor peptides are tested in 2-4 complete, independent experiments, at concentrations ranging from 30 μg/mL to 300 pg/mL.

purified HLA DRB1*0405 = target: T2, purified HLA DRB1*0405 (Homo sapiens, UniProt P01903+P01911, A100R/A169T/D86S/F76Y/I96L/K127E/L162R/M171V/N62H/P40V/Q125Y/R42H/S133A/S149N/S66Y/V115G/V209L/W38E); assay: HLA-DR radioligand binding inhibition assay, DRB1*0405
T2 construct: MHC molecules utilized were purified from EBV transformed homozygous cell lines or single MHC allele transfected 721.221, C1R, or fibroblast lines; made in house; host or cells: EBV transformed homozygous cell lines or single MHC allele transfected 721.221, C1R, or fibroblast lines
Experimental: as §1, §2

purified HLA DRB4*0101 = target: T3, purified HLA DRB4*0101 (Homo sapiens, UniProt P01903+P13762, G164S); assay: HLA-DR radioligand binding inhibition assay, DRB4*0101
T3 construct: MHC molecules utilized were purified from EBV transformed homozygous cell lines or single MHC allele transfected 721.221, C1R, or fibroblast lines; made in house; host or cells: EBV transformed homozygous cell lines or single MHC allele transfected 721.221, C1R, or fibroblast lines
Experimental: as §1, §2

purified HLA DRB3*0101 = target: T4, purified HLA DRB3*0101 (Homo sapiens, UniProt P01903+P79483); assay: HLA-DR radioligand binding inhibition assay, DRB3*0101
T4 construct: MHC molecules utilized were purified from EBV transformed homozygous cell lines or single MHC allele transfected 721.221, C1R, or fibroblast lines; made in house; host or cells: EBV transformed homozygous cell lines or single MHC allele transfected 721.221, C1R, or fibroblast lines
Experimental: as §1, §2

purified HLA DRB1*0404 = target: T5, purified HLA DRB1*0404 (Homo sapiens, UniProt P01903+P01911, A100R/A169T/F76Y/I96L/K127E/L162R/M171V/N62H/P40V/Q125Y/R42H/S133A/S149N/S66Y/V209L/W38E); assay: HLA-DR radioligand binding inhibition assay, DRB1*0404; settings: read-out: IC50 to purified HLA DRB1*0404; purified HLA DRB1*0404
T5 construct: MHC molecules utilized were purified from EBV transformed homozygous cell lines or single MHC allele transfected 721.221, C1R, or fibroblast lines; made in house; host or cells: EBV transformed homozygous cell lines or single MHC allele transfected 721.221, C1R, or fibroblast lines
Experimental: as §1, §2

purified HLA DRB1*0101 = target: T6, purified HLA DRB1*0101 (Homo sapiens, UniProt P01903+P01911, A100R/D57E/F55L/F60I/F76Y/I96L/L162R/M171V/P40L/Q125E/R42F/V115G/Y59C); assay: HLA-DR radioligand binding inhibition assay, DRB1*0101; settings: read-out: IC50 to purified HLA DRB1*0101
T6 construct: MHC molecules utilized were purified from EBV transformed homozygous cell lines or single MHC allele transfected 721.221, C1R, or fibroblast lines; made in house; host or cells: EBV transformed homozygous cell lines or single MHC allele transfected 721.221, C1R, or fibroblast lines
Experimental: (§3) Fifteen distinct HLA-DR molecules were used in quantitative assays to measure the binding of peptides to solubilized HLA-DR molecules. […] Briefly, columns of inactivated Sepharose CL4B and Protein A Sepharose were used as pre-columns. HLA-DR molecules were captured by passage of lysates over LB3.1 monoclonal antibody (anti-HLA-DRA) columns. Antibody columns were washed with 10 mM Tris-HCL, pH8.0 with 1% (v/v) NP-40, followed by PBS containing 0.4% (w/v) n-octylglucoside.
(§4) Briefly, 1-10 nM of radiolabeled peptide was co-incubated for 2 days at either room temperature or 37° C. with 1 μM to 1 nM purified HLA-DR molecules in the presence of a cocktail of protease inhibitors. Assays were performed at various pH conditions, ranging from pH 4 to pH 7. […] After incubation, the percentage of HLA-DR-bound radioactivity is determined by capturing HLA-DR/peptide complexes on Optiplates (Packard Instruments, Meriden, Conn.) coated with the LB3.1 antibody and determining bound counts per minute using the TopCount microscintillation counter (Packard Instruments).

purified HLA DRB1*0701 = target: T7, purified HLA DRB1*0701 (Homo sapiens, UniProt P01903+P01911, A100R/A102G/A103Q/D57E/D86V/E43K/F76Y/K127E/L162R/M171V/P40G/Q125H/Q99D/R33Q/R42Y/R54Q/S133A/S66F/T210M/V115G/Y107V/Y59L/Y89S); assay: HLA-DR radioligand binding inhibition assay, DRB1*0701
T7 construct: MHC molecules utilized were purified from EBV transformed homozygous cell lines or single MHC allele transfected 721.221, C1R, or fibroblast lines; made in house; host or cells: EBV transformed homozygous cell lines or single MHC allele transfected 721.221, C1R, or fibroblast lines
Experimental: as §3, §4

purified HLA DRB1*1302 = target: T8, purified HLA DRB1*1302 (Homo sapiens, UniProt P01903+P01911, A100E/A169T/K41T/L162R/M171V/P40S/Q125H/Q178H/Q39Y/Q99D/R42S/S66N/T262R/V115G/W38E/Y61H); assay: HLA-DR radioligand binding inhibition assay, DRB1*1302; settings: column 6 of second part of Table I
T8 construct: MHC molecules utilized were purified from EBV transformed homozygous cell lines or single MHC allele transfected 721.221, C1R, or fibroblast lines; made in house; host or cells: EBV transformed homozygous cell lines or single MHC allele transfected 721.221, C1R, or fibroblast lines
T8 sequence (P01903 26-254, other chains not shown): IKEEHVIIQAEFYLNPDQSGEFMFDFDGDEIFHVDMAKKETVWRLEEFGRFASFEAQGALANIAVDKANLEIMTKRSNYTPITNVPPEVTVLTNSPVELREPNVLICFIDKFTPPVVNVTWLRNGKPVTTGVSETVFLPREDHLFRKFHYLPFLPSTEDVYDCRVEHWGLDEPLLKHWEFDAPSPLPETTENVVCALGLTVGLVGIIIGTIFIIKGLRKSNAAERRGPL
Experimental: as §3, §4

`CC[C@H](C)[C@H](NC(=O)[C@@H](NC(=O)[C@H](Cc1ccc(O)cc1)NC(=O)CN)C(C)C)C(=O)NCC(=O)N[C@H](C(=O)N[C@@H](CCC(N)=O)C(=O)N[C@@H](CCC(N)=O)C(=O)N[C@@H](C)C(=O)N[C@H](C(=O)N1CCC[C@H]1C(=O)NCC(=O)N1CCC[C@H]1C(=O)N[C@@H](C)C(=O)N[C@@H](Cc1ccc(O)cc1)C(=O)O)[C@@H](C)O)[C@@H](C)O` [Peptide 9019.0110] was tested. Which IC50 (purified HLA DRB5*0101) did it give?
Its IC50 is 10.2 µM.

`CC[C@H](C)[C@H](NC(=O)[C@H](CCCCN)NC(=O)[C@H](CCC(N)=O)NC(=O)[C@@H](N)CCC(N)=O)C(=O)N[C@@H](CCCNC(=N)N)C(=O)N[C@@H](CCCCN)C(=O)N[C@@H](Cc1ccc(O)cc1)C(=O)N[C@H](C(=O)N[C@@H](CCSC)C(=O)N[C@@H](CCCNC(=N)N)C(=O)N[C@@H](CCCNC(=N)N)C(=O)N[C@@H](CC(C)C)C(=O)N[C@@H](CC(C)C)C(=O)N[C@@H](CCC(N)=O)C(=O)N[C@@H](CCC(=O)O)C(=O)O)[C@@H](C)O` [Peptide 9019.0070] was tested. Which IC50 (purified HLA DRB1*0405) did it give?
Its IC50 is greater than 20 µM.

`CSCC[C@H](NC(=O)[C@H](CC(C)C)NC(=O)[C@H](CCC(=O)O)NC(=O)[C@H](Cc1c[nH]c2ccccc12)NC(=O)[C@@H](NC(=O)[C@@H](NC(=O)[C@@H](NC(=O)CNC(=O)[C@H](Cc1ccc(O)cc1)NC(=O)[C@H](CO)NC(=O)[C@H](Cc1c[nH]c2ccccc12)NC(=O)[C@@H](NC(=O)[C@H](CC(=O)O)NC(=O)[C@@H](N)CO)C(C)C)C(C)C)[C@@H](C)O)C(C)C)C(=O)N[C@H](C(=O)O)[C@@H](C)O` [Peptide 9019.0089] was tested. Which IC50 (purified HLA DRB4*0101) did it give?
Its IC50 is greater than 20 µM.

Which IC50 (purified HLA DRB3*0101) does the source give for `CSCC[C@H](NC(=O)[C@H](CCCNC(=N)N)NC(=O)[C@H](CO)NC(=O)[C@H](Cc1ccccc1)NC(=O)[C@H](CCC(=O)O)NC(=O)[C@H](CO)NC(=O)[C@@H](NC(=O)[C@H](CC(C)C)NC(=O)[C@H](CCC(=O)O)NC(=O)[C@H](CCCNC(=N)N)NC(=O)[C@H](Cc1ccccc1)NC(=O)[C@H](CCCNC(=N)N)NC(=O)[C@@H]1CCCN1C(=O)[C@@H](N)CCCNC(=N)N)C(C)C)C(=O)N[C@@H](C)C(=O)O` [Peptide 9019.0095] here?
The IC50 was greater than 20 µM.

Which results are given for `CC[C@H](C)[C@H](N)C(=O)N[C@@H](CS)C(=O)N[C@H](C(=O)N[C@H](C(=O)N[C@@H](CC(=O)O)C(=O)N[C@H](C(=O)N[C@@H](Cc1ccc(O)cc1)C(=O)N[C@@H](CCSC)C(=O)N[C@H](C(=O)N[C@@H](CCSC)C(=O)N[C@H](C(=O)N[C@@H](CCCCN)C(=O)N[C@@H](CS)C(=O)N[C@@H](Cc1c[nH]c2ccccc12)C(=O)N[C@@H](CCSC)C(=O)O)C(C)C)[C@@H](C)CC)C(C)C)[C@@H](C)CC)[C@@H](C)O` [Peptide 1622.04]?
IC50 (purified HLA DRB1*0404): > 20 µM; IC50 (purified HLA DRB1*0101): > 20 µM

For KELAVFREKVTEQHR [Peptide 9019.0186], which IC50 (purified HLA DRB1*0701) is on record?
Its IC50 is greater than 20 µM.

And the IC50 (purified HLA DRB1*1302)?
Its IC50 is greater than 20 µM.
